Publication PMC12040169 (PLOS Biology, 2025)

Test: in vitro
Settings: human, hela cells, % viability

| SMILES | viability at 28.5 h, 10 µM |
| --- | --- |
| COc1ccc(-n2ncc3c(N4CCN(Cc5ccccc5)CC4)ncnc32)cc1 [CBK265879] | 88.8% |
| COc1ccc(-c2cc(-c3nnc(S)n3-c3ccccc3Cl)[nH]n2)cc1 [CBK265880] | 100% |
| NCCNc1ccc([N+](=O)[O-])c(Sc2nc3ccccc3[nH]2)c1 [CBK265882] | 106% |
| COc1cc(NC(=S)NCCN2CCOCC2)c(OC)cc1Cl [CBK265888] | 101% |
| CCn1cc(Br)c(C(=O)Nc2nccs2)n1 [CBK265890] | 96.8% |
| NS(=O)(=O)c1ccc(NC(=S)N2CCN(CCO)CC2)cc1 [CBK265891] | 87.5% |
| Cc1cc(C)c2c(n1)nn1c(C)c(CCC(=O)O)c(C)nc21 [CBK265892] | 98.2% |
| O=C(Nc1ccc(Br)c2cccnc12)c1ccc(Cn2cc(Cl)cn2)o1 [CBK265893] | 88.2% |
| COc1ccc(C(=O)Nc2ccccc2C(=O)Nc2cccc([N+](=O)[O-])c2)cc1 [CBK265894] | 101% |
| NC(=O)C1(N2CCCCC2)CCN(Cc2nc(O)c3ccccc3n2)CC1 [CBK265896] | 103% |
| O=C(Nc1ccccc1)c1ccc(COc2ccc3ccccc3c2)o1 [CBK265897] | 113% |
| Cn1c(Cc2cccc3ccccc23)nnc1SCc1ccc([N+](=O)[O-])cc1 [CBK265898] | 93.6% |
| CC(=O)Nc1cccc(NC(=O)c2cccc(Cn3cc(Cl)cn3)c2)c1 [CBK265899] | 90.5% |
| O=C(CSc1n[nH]c(-c2ccccc2Cl)n1)Nc1ccccc1F [CBK265901] | 82.9% |
| O=C(Nc1ccccc1-c1ccccc1)C1CN(S(=O)(=O)c2ccccc2)CCN1S(=O)(=O)c1ccccc1 (stereo not drawn) [CBK265902] | 91.1% |
| Cc1cccc(C(=O)Nc2ccccc2C(=O)Nc2cccc(C(=O)O)c2C)c1 [CBK265911] | 99.4% |
| O=C1C2(c3ccccc3)CN(CCCO)CC1(c1ccccc1)CN(CCCO)C2 [CBK265912] | 109% |
| CC(C)NS(=O)(=O)c1ccc(OCC(=O)Nc2ccc3c(c2)OCCO3)cc1 [CBK265915] | 106% |
| CCOC(=O)Cn1c(CCC(=O)O)ccc1-c1ccc(F)cc1 [CBK265916] | 97.8% |
| CCOC(=O)c1c(-c2ccc(C)o2)csc1NC(=O)CN1CCCCC1C (stereo not drawn) [CBK265917] | 105% |
| COC(=O)c1c(C)[nH]c(C(=O)CSc2ncnc3scc(-c4ccccc4)c23)c1C [CBK265918] | 95.5% |
| Cc1nnc(SCC(=O)N2c3ccccc3Sc3ccccc32)n1N [CBK265920] | 96.5% |

| SMILES | viability at 28.5 h, 10 µM |
| --- | --- |
| COc1ccc(S(=O)(=O)N(C)CC(=O)Nc2ccc(S(N)(=O)=O)cc2)cc1 [CBK265922] | 102% |
| CCCn1nnc(NC(=O)COc2ccc3ccccc3c2)n1 [CBK265923] | 101% |
| NC1=C(c2nc3ccccc3s2)C(=O)CN1CCCN1CCOCC1 [CBK265925] | 109% |
| COc1ccc(-c2ccc(CCC(=O)O)n2CCc2ccccc2)cc1 [CBK265929] | 115% |
| NC(=O)C1CCN(C(=O)CSc2nc3ccccc3o2)CC1 [CBK265930] | 97.8% |
| Cc1ccc(NC(=O)Cn2cnc3sc(C(=O)Nc4ccccc4)c(C)c3c2=O)cc1 [CBK265931] | 101% |
| Cc1cc(C)cc(N(CC(=O)Nc2ccccc2-c2ccccc2)S(=O)(=O)c2ccccc2)c1 [CBK265933] | 92.4% |
| O=C(O)CCc1ccc(-c2ccc(F)cc2)n1CCc1ccccc1 [CBK265936] | 108% |
| O=C(CSc1ncccn1)Nc1sc2c(c1C(=O)Nc1ccccc1)CCCC2 [CBK265939] | 93% |
| Cn1c(=O)c2c(nc(Oc3ccccc3Cl)n2Cc2cccc(C(F)(F)F)c2)n(C)c1=O [CBK265940] | 89.7% |
| NC(=S)Nn1c(CCC(=O)O)ccc1-c1ccccc1 [CBK265942] | 100% |
| Cc1nc(SCC(=O)N2CCC(C)CC2)c2c3c(sc2n1)CCC3 [CBK265944] | 86.1% |
| COc1cc(CO)cc(I)c1OCC(=O)Nc1ccccc1 [CBK265950] | 112% |
| OCCOCCNc1ncnc2sc(-c3ccccc3)cc12 [CBK265951] | 76% |
| CC(=O)NC(C)(COc1nonc1C)COc1nonc1C [CBK265955] | 90.3% |
| O=C(Nc1cccc(NS(=O)(=O)c2ccc(Cl)cc2)c1)c1ccco1 [CBK265956] | 91.2% |
| O=C(CSCc1ccccc1Br)Nc1ccccc1-c1ccccc1 [CBK265959] | 88.4% |
| Cc1ccc(S(=O)(=O)N2CCN(C(=O)CSc3nnc4sc5ccccc5n34)CC2)cc1 [CBK265961] | 90.5% |
| CCc1ccccc1NC(=O)Cn1ncnc1Sc1nc2c(c(=O)n(C)c(=O)n2C)n1C [CBK265963] | 87.6% |
| Cc1ccc(OCC(=O)Nc2cc(Cl)ccc2O)cc1C [CBK265968] | 108% |
| Cn1c(SCCOc2ccccc2Cl)nnc1-c1ccncc1 [CBK265969] | 111% |
| O=C(O)CC(C(=O)OC1CCCCC1)N1CCOCC1 (stereo not drawn) [CBK265970] | 95.1% |

| SMILES | viability at 28.5 h, 10 µM |
| --- | --- |
| NC(=O)C1CCN(C(=O)CN2CCN(Cc3ccccc3)CC2)CC1 [CBK265971C] | 82.8% |
| COc1ccc(CN(C(=O)CCN2C(=O)c3ccccc3S2(=O)=O)c2ccccc2O)cc1 [CBK265973] | 99.4% |
| COC(=O)c1ccccc1NC(=O)CNS(=O)(=O)c1c(C)cc(C)cc1C [CBK265974] | 104% |
| COC(=O)c1c(-c2ccc(F)cc2)csc1NC(=O)CSc1ncnc2sc3c(c12)CCC3 [CBK265976] | 103% |
| O=C(Cc1ccc([N+](=O)[O-])cc1)Nc1ccc(O)cc1C(=O)O [CBK265977] | 97.6% |
| COC(=O)c1cc(-c2ccccc2)sc1NC(=O)CSc1ncnc2sc3c(c12)CCC3 [CBK265978] | 97.4% |
| COc1ccc(Br)cc1C(=O)NC(=S)Nc1cc(Cl)c(O)c(Cl)c1 [CBK265979] | 89.6% |
| Nc1nonc1C(=O)NCCNS(=O)(=O)c1ccc(F)cc1 [CBK265980] | 88.1% |
| O=C(O)CCc1ccc(-c2cccs2)n1CCc1ccccc1 [CBK265983] | 113% |
| COCCn1c(Cc2ccccc2)nnc1SCc1ccc2ccccc2c1 [CBK265985] | 96.6% |
| CCc1cccc(CC)c1NC(=O)CN(c1cccc(Br)c1)S(C)(=O)=O [CBK265986] | 84.9% |
| C=CCN1CC2(c3ccccc3)CN(CC=C)CC(c3ccccc3)(C1)C2=O [CBK265987] | 86.3% |
| Cc1ccc(S(=O)(=O)N(CC(=O)Nc2ccccc2-c2ccccc2)c2cccc(C)c2)cc1 [CBK265988] | 98% |
| CN1CCN(CCC(=O)Nc2ccc(Cl)c(C(F)(F)F)c2)CC1 [CBK265995] | 89.9% |
| Cc1ccc(N(CC(=O)Nc2ccc(C)cc2C)S(=O)(=O)N2CCCC2)cc1 [CBK265998] | 110% |
| CCOC(=O)c1c(NC(=O)CSc2nnc[nH]2)sc2c1CCCC2 [CBK265999] | 93.1% |
| COC(=O)c1ccccc1NC(=O)CNS(=O)(=O)c1ccc(C)cc1 [CBK266000] | 94.7% |
| COc1cccc(NC(=O)CCN2C(=O)c3ccccc3S2(=O)=O)c1 [CBK266003] | 92.3% |
| CNc1cc(N2CCN(S(=O)(=O)c3ccc(C)cc3)CC2)ccc1[N+](=O)[O-] [CBK266005] | 104% |
| O=C(O)COc1ccc(NC(=O)c2ccc3c(c2)C(=O)N(C2CCCCC2)C3=O)cc1 [CBK266009] | 92.1% |
| CCOC(=O)c1ccc(-n2c(CCC(=O)O)ccc2-c2ccc(F)cc2)cc1O [CBK266010] | 94.1% |
| CCOC(=O)c1cnc2c(C(F)(F)F)cccc2c1NCCCN1CCOCC1 [CBK266012] | 92.4% |

| SMILES | viability at 28.5 h, 10 µM |
| --- | --- |
| CCN(CC)Cc1cc(C(C)(C)C)oc1C(=O)O [CBK266013C] | 110% |
| O=C(O)CCc1ccc(-c2cccs2)n1-c1ccc(C(=O)O)cc1 [CBK266016] | 90.9% |
| COc1ccc(-c2ccc(CCC(=O)O)n2NC(N)=S)cc1 [CBK266018] | 102% |
| Cc1cc(C)c(S(=O)(=O)Nc2ccc(S(=O)(=O)Nc3ccc(Cl)cc3Cl)cc2)c(C)c1 [CBK266022] | 109% |
| CC(C)c1ccc(OCCN2CCNCC2)cc1 [CBK266024C] | 96% |
| CN(C)S(=O)(=O)c1ccc(C(=O)Nc2cccc(N3Cc4ccccc4C3)c2)cc1 [CBK266025] | 98.8% |
| Cc1cc(C)c(OCCCN2CCCCCC2)c(Cl)c1 [CBK266026G] | 101% |
| c1ccc(Oc2cccc(OCCCCN3CCNCC3)c2)cc1 [CBK266027G] | 92.6% |
| COc1ccccc1NC(=O)COc1cccc(Cl)c1Cl [CBK266029] | 106% |
| O=C(COc1ccc(NS(=O)(=O)c2ccc3c(c2)Cc2ccccc2-3)cc1)N1CCOCC1 [CBK266030] | 101% |
| CCC(Oc1ccccc1)C(=O)Nc1ccccc1-c1ccccc1 (stereo not drawn) [CBK266031] | 108% |
| O=S(=O)(NCCOCc1ccccc1)c1ccc2c(c1)Cc1ccccc1-2 [CBK266032] | 101% |
| COc1ccc(N2C(=O)C3C(CC(C)C)NC4(C(=O)N(CC(=O)Nc5ccc(C)cc5)c5ccccc54)C3C2=O)cc1 (stereo not drawn) [CBK266034] | 95.9% |
| CC(C)(C)NC(=O)CSc1nnc(Cc2cccc3ccccc23)n1-c1ccccc1 [CBK266039] | 118% |
| N#Cc1cccc(CSc2nnc(Nc3ccccc3)n2-c2ccccc2)c1 [CBK266040] | 107% |
| Cc1c(Cl)cccc1NC(=O)CSc1nnc(Cc2cccc3ccccc23)n1-c1ccccc1 [CBK266042] | 98.7% |
| CNC(=O)CSc1nnc(COc2cccc3ccccc23)n1-c1ccccc1 [CBK266043] | 102% |
| Cc1ccc(SCCN2CCNCC2)cc1 [CBK266045G] | 99.6% |
| Cc1ccccc1OCC(=O)Nc1c(C)n[nH]c1C [CBK266046C] | 106% |
| CCOc1ccc(NC(=O)C(C)Sc2nc3ccc(F)cc3[nH]2)cc1 (stereo not drawn) [CBK266047] | 107% |
| Cc1ccc(S(N)(=O)=O)cc1NC(=O)c1ccc(S(=O)(=O)N(C)C)cc1 [CBK266050] | 103% |
